For this assay, the target named is T1, Gastrin receptor (Cavia porcellus, UniProt H0VZC5).
T1 construct: The fundic mucosa is gently scraped off the submucosa; from tissue; host or cells: gastric glands from fundic mucosa of Hartley guinea pig
T1 sequence (H0VZC5 1-426): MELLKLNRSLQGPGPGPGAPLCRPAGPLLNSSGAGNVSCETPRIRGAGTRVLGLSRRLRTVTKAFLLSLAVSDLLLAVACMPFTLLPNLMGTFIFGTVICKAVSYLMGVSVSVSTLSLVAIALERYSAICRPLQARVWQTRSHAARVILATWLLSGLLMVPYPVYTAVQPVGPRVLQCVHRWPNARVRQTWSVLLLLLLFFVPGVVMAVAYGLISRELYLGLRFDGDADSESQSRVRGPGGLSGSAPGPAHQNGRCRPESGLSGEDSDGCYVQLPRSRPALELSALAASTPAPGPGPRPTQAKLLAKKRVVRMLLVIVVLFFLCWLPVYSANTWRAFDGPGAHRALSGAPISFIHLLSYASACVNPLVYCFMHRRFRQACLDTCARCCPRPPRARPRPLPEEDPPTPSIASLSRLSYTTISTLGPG
Briefly: Gastrin receptor binding assay (displacement of 125I-(Leu-15)-Gastrin from guinea pig fundic glands). Also noted: species or system guinea pig (Hartley Strain). To be noted: guinea pig fundic mucosa glands, 25° C., 30 min, read-out: In vitro Binding Data IC50 Gastrin. As to the method:
(a) Phosphate Buffered Saline (PBS): 8.743 g NaCl, 523 mg K2 HPO4 and 76.8 mg NaH2 PO4 is dissolved in 1.0 liter of deionized water and the pH of the solution is adjusted to 7.3 with 5N NaOH.
(b) Buffer A: While adding Basal Medium Eagle (BME) containing Earle's Salts, L-glutamine and 25 mM HEPES, 3 liters of deionized water is stirred, followed by the addition and dissolution of […] of sodium bicarbonate. The solution is then equilibrated with 95% O2 /5% CO2 gas followed by titration to a pH of 7.4 with NaOH.
(c) Buffer B: 18.75 mg of collagenase and […] of BSA is dissolved in 25 ml of Buffer A.
(d) Buffer C: 0.3 g of BSA is dissolved in 300 ml of Buffer A.
(e) 6.25 mg Bacitracin is dissolved in 25 ml of Buffer A.
(f) ^125 I-(Leu-15)-Gastrin: 100 microcurie dissolved in 2.0 ml of Buffer A to make 50 microcurie/ml.
(g) ^125 I-(15-methionine)-Human Gastrin: 50 microcurie/ml.
(h) (Leu 15)-Gastrin: 5.2 mg of (Leu-15)- Gastrin is dissolved in 10 ml of Buffer A. At the time of assay 1:10 dilution is made and 10 μl assay tube is used.
A guinea pig (Hartley Strain) weighing 150-200 grams, is sacrificed by CO2 asphyxiation and the stomach immediately excised, cut along the greater curvature, cleaned out and immediately immersed in a beaker containing cold PBS, pH 7.3, to insure thorough cleaning. The fundic mucosa is gently scraped off the submucosa and added to a preweighed 50 ml plastic centrifuge tube containing 30 ml of cold Buffer A. The weight of the plastic centrifuge tube containing the buffer is then subtracted from the combined weight of the mucosa and the buffer-containing tube to give the weight of the mucosa. The weight of the mucosa thus determined is recorded for later calculations.
The mucosa is then washed twice in Buffer A. After the final wash, the tissue is minced and is placed in a 100-ml glass beaker containing about 1.0 ml of Buffer A, and washed twice again by repeated centrifugation at 50×g for 5 minutes each and aspiration of supernatant. The washed tissue fragments are then added to a glass Erlenmeyer flask containing 25 ml of Buffer B and incubated in a Dubnoff shaking water bath at 37° C. for 30 minutes in a 95% O2 - 5% CO2 atmosphere. After the incubation, the digested tissue fragments in the Collegenase-buffer solution are triturated, filtered through a 200-micron nylon mesh and centrifuged at 50×g for 5 minutes. The supernatant is aspirated and discarded, the tissue washed 2× in Buffer C, resuspended in same buffer, incubated in a 37° C. water bath in an atmosphere of 95% O2 - 5% CO2 for 5 minutes, and centrifuged. The pelleted glands are suspended in Buffer D at a desired concentration of 2x10^5 glands/ml to use in the receptor binding assay.
Six minisorp tubes (16×100 mm) are serially marked and divided into two groups thus: tubes #1, #2, and #3 are marked "T" for "Totals" and tubes #4, #5, and #6 are marked "NS" for "Non-Specifics." Into each of the six tubes are added 220 μl of prepared glands in Buffer D; 20 μl of Buffer A in tubes #1, #2, and #3; 10 μl, in tubes #4, #5 and #6; (10μ of (Leu-15)-Gastrin (25 μM) in tubes #4, #5, and #6. The six tubes are then transferred immediately to a 25° C. water bath and challenged each with 10 μl ^125 I-(Leu-15)-Gastrin diluted as per calculation. The tubes are then covered with a gas hood connected to a 95% O2 - 5% CO2 gas source and mechanically agitated in a shaker for 30 minutes.
At the end of the incubation period, the assay mixtures are each filtered through a Whatman glass fiber filter B on a Brandel tissue harvester and washed twice with Buffer A. The filters are pre-soaked in Buffer C before use. The filter strips are removed after the final wash and individual filters counted in a Gamma Counter. The counts from the "Non-Specific" tubes are then averaged and subtracted from the average "Totals" to give the Specific Counts. […]
In the case of `CC(C)C[C@H](NC(=O)[C@H]1Cc2c([nH]c3ccccc23)CN1)C(=O)N[C@@H](CC(=O)O)C(N)=O` [Example 1, N-[(3R)-1,2,3,4-tetrahydro-9H-pyrido[3,4-b]indole-3-carboxyl]-L-leucyl-L-aspartic acid amide], the IC50 amounted to 12 µM.
The value for `CC(C)C[C@H](NC(=O)[C@@H]1Cc2c([nH]c3ccccc23)CN1)C(=O)N[C@@H](CC(=O)O)C(N)=O` [Example 2, N-[(3S)-1,2,3,4-tetrahydro-9H-pyrido[3,4-b]indole-3-carboxyl]-L-leucyl-L-aspartic acid amide] was 60 µM.
Take `NC(=O)[C@H](CC(=O)O)NC(=O)[C@H]1Cc2c([nH]c3ccccc23)CN1` [Example 3, N-[(3R)-1,2,3,4-tetrahydro-9H-pyrido[3,4-b]-indole-3-carboxyl]-L-aspartic acid amide]: the IC50 was over 300 µM.
For the molecule `NC(=O)[C@H](CC(=O)O)NC(=O)[C@@H]1Cc2c([nH]c3ccccc23)CN1` [Example 4, N-[(3S)-1,2,3,4-tetrahydro-9H-pyrido[3,4-b]indole-3-carboxyl]-L-aspartic amide], the IC50 is over 300 µM.
The value for `O=C(NCC(c1ccccc1)c1ccccc1)[C@H]1Cc2c([nH]c3ccccc23)CN1` [Example 5, (3R)-3-(2,2'-diphenyl)ethylcarbamoyl-1,2,3,4-tetrahydro-9H-pyrido[3,4-b]indole] was 59 µM; that for `O=C(NC(c1ccccc1)c1ccccc1)[C@H]1Cc2c([nH]c3ccccc23)CN1` [Example 6, (3R)-3-diphenylmethylcarbamoyl-1,2,3,4-tetrahydro-9H-pyrido[3,4-b]indole] was 60 µM.
As for `NC(=O)[C@H](CC(=O)O)NC(=O)[C@H]1Cc2c([nH]c3ccccc23)CN1C(=O)c1ccccc1` [Example 8, N-[(3R)-2-benzoyl-1,2,3,4-tetrahydro-9H-pyrido[3,4-b]indole-3-carboxyl]-L-aspartic acid amide], the IC50 was found to be 78 µM.
With `CC(C)C[C@H](NC(=O)[C@H]1Cc2c([nH]c3ccccc23)CN1C(=O)c1ccccc1)C(=O)N[C@@H](CC(=O)O)C(N)=O` [Example 9, N-[(3R)-2-benzoyl-1,2,3,4-tetrahydro-9H-pyrido[3,4-b]indole-3-carboxyl]-L-leucyl-L-aspartic acid amide] the figure was 25 µM; with `CC(C)C[C@H](NC(=O)[C@H]1Cc2c([nH]c3ccccc23)CN1C(=O)c1ccc2ccccc2c1)C(=O)N[C@@H](CC(=O)O)C(N)=O` [Example 10, N-[(3R)-2-(2-naphthoyl)-1,2,3,4-tetrahydro-9H-pyrido[3,4-b]indole-3-carboxyl]-L-leucyl-L-aspartic acid amide], 15 µM.
With `Cc1cccc(NC(=O)N2Cc3[nH]c4ccccc4c3C[C@@H]2C(=O)N[C@@H](CC(C)C)C(=O)N[C@@H](CC(=O)O)C(N)=O)c1` [Example 11, N-[(3R)-2-(3-methylphenylcarbamoyl)-1,2,3,4-tetrahydro-9H-pyrido[3,4-b]indole-3-carboxyl]-L-leucyl-L-aspartic acid amide] the figure was 4 µM.
Take `Cc1cccc(NC(=O)N2Cc3[nH]c4ccccc4c3C[C@H]2C(=O)N[C@@H](CC(C)C)C(=O)N[C@@H](CC(=O)O)C(N)=O)c1` [Example 12, N-[(3S)-2-(3-methylphenylcarbamoyl)-1,2,3,4-tetrahydro-9H-pyrido[3,4-b]indole-3-carboxyl]-L-leucyl-L-aspartic acid amide]: the half-maximal inhibitory concentration (IC50) worked out at 29 µM.
With `CCCCCN(CCCCC)C(=O)[C@H]1Cc2c([nH]c3ccccc23)CN1C(=O)Nc1cccc(C)c1` [Example 13, (3R)-3-(N,N-dipentylcarbamoyl)-2-(3-methylphenylcarbamoyl)-1,2,3,4-tetrahydro-9H-pyrido[3,4-b]indole] the figure was over 300 µM; with `CC(C)C[C@H](NC(=O)[C@H]1Cc2c([nH]c3ccccc23)CN1C(=O)Nc1ccccc1)C(=O)N[C@@H](CC(=O)O)C(N)=O` [Example 14, N-[(3R)-2-phenylcarbamoyl-1,2,3,4-tetrahydro-9H-pyrido[3,4-b]indole-3-carboxyl]-L-leucyl-L-aspartic acid amide], 5.5 µM; with `CCOC(=O)c1ccc(NC(=O)[C@H]2Cc3c([nH]c4ccccc34)CN2C(=O)OCc2ccccc2)cc1` [Example 15, ethyl 4-N-[(3R)-2-carbobenzoxy-1,2,3,4-tetrahydro-9H-pyrido[3,4-b]indole-3-carboxyl]aminobenzoate], 10 µM.
Regarding `CCOC(=O)c1cccc(NC(=O)[C@H]2Cc3c([nH]c4ccccc34)CN2C(=O)OCc2ccccc2)c1` [Example 16, ethyl 3-N-[(3R)-2-carbobenzoxy-1,2,3,4-tetrahydro-9H-pyrido[3,4-b]indole-3-carboxyl]aminobenzoate], the IC50 is over 300 µM.
With `CCOC(=O)c1ccccc1NC(=O)[C@H]1Cc2c([nH]c3ccccc23)CN1C(=O)OCc1ccccc1` [Example 17] the figure was 100 µM.
The value for `O=C(Nc1ccccc1C(=O)N1CCCC1)[C@H]1Cc2c([nH]c3ccccc23)CN1C(=O)OCc1ccccc1` [Example 18, pyrrolidine-2-N-[(3R)-2-carbobenzoxy-1,2,3,4-tetrahydro-9H-pyrido-[3,4-b]indole-3-carboxyl]aminobenzamide] was 55 µM.
Regarding `O=C(Nc1ccccc1C(=O)N1CCCC1)[C@@H]1Cc2c([nH]c3ccccc23)CN1C(=O)OCc1ccccc1` [Example 19, pyrrolidine-2-N-[(3S)-2-carbobenzoxy-1,2,3,4-tetrahydro-9H-pyrido[3,4-b]indole-3-carboxyl]aminobenzamide], the concentration for half-maximal inhibition (IC50) is 8 µM.
On to `O=C(Nc1ccccc1C(=O)N1CCCC1)[C@H]1Cc2c([nH]c3ccccc23)CN1C(=O)c1ccc2ccccc2c1` [Example 20, pyrrolidine-2-N-[(3R)-2-(2-naphthoyl)-1,2,3,4-tetrahydro-9H-pyrido[3,4-b]indole-3-carboxyl]aminobenzamide], for which the IC50 worked out at 80 µM.
The value for `CCCCN(CCCC)C(=O)c1ccccc1NC(=O)[C@H]1Cc2c([nH]c3ccccc23)CN1C(=O)OCc1ccccc1` [Example 22] was over 300 µM; that for `CCOC(=O)c1ccccc1NC(=O)[C@@H]1Cc2c([nH]c3ccccc23)CN1C(=O)OCc1ccccc1` [Example 23, ethyl 2-N-[(3S)-2-carbobenzoxy-1,2,3,4-tetrahydro-9H-pyrido[3,4-b]indole-3-carboxyl]aminobenzoate] was over 300 µM; that for `CC[C@H](C)[C@H](NC(=O)[C@H]1Cc2c([nH]c3ccccc23)CN1C(=O)Nc1ccc(Cl)c(Cl)c1)C(=O)N[C@@H](CC(=O)O)C(N)=O` [Example 24, N-[(3R)-2-(3,4-dichlorophenylcarbamoyl)-1,2,3,4-tetrahydro-9H-pyrido[3,4-b]indol-3-yl]carbonyl-L-isoleucyl-L-aspartic acid amide] was 0.77 µM.

(Values after patent publication US5162336A, “Tetrahydro-pyrido-indoles as cholecystokinin and gastrin antagonists” (Rhone-Poulenc Rorer Pharmaceuticals Inc., priority 1990, dated 1992).)
